For one assay, the system named is HeLa. Nature of the assay: MTT cytotoxicity assay, HeLa. The format is cell-based. As to conditions: Homo sapiens, 48 h, mean ± SD, three independent experiments.
Assay [1] deals with HeLa cells. Put plainly: AO/EB staining. The format is cell-based, human. To be noted: 10 μM, 12 and 24 h. Here is the method:
The cytotoxicity of compound 9n at a concentration of 10 μM against HeLa cells from 12 to 24 h was detected by AO/EB staining, and Hela cells not treated with the 9n were used as control for 48 h. […] Also due to the AO uptake, control cells appeared green while 9n treated cells appeared green to intense green as apoptotic cells had much more permeable membranes.
Cells were seeded at a concentration of 5 × 10^4 cell/ mL in a volume of 2 mL on a sterile cover slip in six-well tissue culture plates. Following incubation, the medium was removed and replaced with fresh medium plus 10% fetal bovine serum and supplemented with compound 9n (15 μM). After the treatment period, the cover slip with monolayer cells was inverted on a glass slide with 20 μL of AO/EB stain (100 mg/mL). Fluorescence was read on a slide with 20 μL of AO/EB stain (100 mg/mL) using a Nikon ECLIPSETE2000-S fluorescence microscope ([…], Tokyo, Japan).

Assay [2] has as its system HeLa cells. Nature of the assay: Cell cycle distribution by PI flow cytometry. The assay is classed as cell-based, human. To be noted: 10, 15 μM, 48 h. The procedure: Many anticancer drugs interact with cells leading to cell growth arrest. To determine the possible role of cell cycle arrest in DHAA derivative induced growth inhibition, HeLa cells were treated with different concentrations of compound 9n. Cell cycle distribution was investigated by flow cytometric analysis after staining of the DNA with propidium iodide (PI).
General procedure cell cycle: HeLa cells were maintained in Dulbecco’s modified Eagle’s medium with 10% fetal calf serum in 5% CO2 at 37 °C. Cells were harvested by trypsinization and rinsed with PBS. After centrifugation, the pellet (10^5–10^6 cells) was suspended in 1 mL of PBS and kept on ice for 5 min. The cell suspension was then fixed by the drop-wise addition of 9 mL precooled (4 °C) 75% ethanol with violent shaking. Fixed samples were kept at 4 °C until use. For staining, cells were centrifuged, resuspended in PBS, digested with 500 μL of RNase A (250 mg/mL), and treated with 25 μL of propidium iodide (PI) (0.15 mM), then incubated for 30 min at 4 °C. PI-positive cells were counted with a FACScan Fluorescence-activated cell sorter (FACS). The population of cells in each cell-cycle phase was determined using Cell Modi FIT software (Becton Dickinson).
In general terms: In flow cytometry, cells or beads pass a laser one at a time.

In assay [3] the test system is HeLa cells. Put plainly: Annexin V/PI apoptosis flow cytometry. As to conditions: 12 h, control 1.521%. The assay is classed as cell-based, human. Here is the method: Annexin V/PI staining was performed to distinguish apoptotic and necrotic cell deaths. The apoptosis ratios induced by compound 9n in HeLa cells were quantitatively determined by flow cytometry (Figure 5). […] Apoptosis ratios (including the early and late apoptosis ratios) for compound 9n were obtained after 12 h of treatment at the concentration of 10 and 15 μM. The apoptosis of HeLa cells treated with target compound 9n increased gradually in a concentration manner. […] The results illustrated that target compound 9n suppressed cell proliferation by inducing apoptosis.
General procedure apoptosis ratios: Prepared HeLa cells (1 × 10^6 cells/mL) were washed twice with cold PBS and then re-suspended gently in 500 μL of binding buffer. Thereafter, cells were stained in 5 μL of Annexin V-FITC and shaken well. Finally, the cells were mixed with 5 μL of PI, incubated for 20 min in the dark and subsequently analyzed using FACSCalibur (Becton Dickinson, Franklin Lakes, NJ, USA).

Assay [4] has as its system HeLa cells. Nature of the assay: ROS generation assay (DCF-DA). To be noted: 10, 15 μM, 12 h. The format is cell-based, human. The source says:
Mitochondria have also been implicated as a source of ROS during apoptosis. […] We herein studied whether the loss of mitochondrial transmembrane potential resulting in the generation of ROS measured as described in our previous papers , using the fluorescent probe 2,7-dichlorofluorescein diacetate (DCF-DA) determined by fluorescence microscopy. […] Calcium has long been recognized as a significant participant in cell apoptosis. Therefore, we investigated whether compound 9n inducing cell death was involved in the production of Ca^2+. To investigate the effect of compound 9n on calcium release, HeLa cells treated with compound 9n at 10 μM for 24 h were loaded with the Ca^2+ indicator Fluo-3-acetoxymethyl-ester (Fluo-3/AM, 5 µM; Beyotime, Jiangsu, China).

A further assay relates to caspase-3. Nature of the assay: Caspase-3 activation assay. The assay is classed as cell-based, human. To be noted: HeLa, versus control, 3 to 24 h. The source says: It is well known that an increase of intracellular ROS can lead to apoptosis. […] Caspases are a family of cysteinyl aspartate specific proteases involved in apoptosis and are dichotomized to groups of initiators (caspases 8, 9 and 10) and executioners (caspases 3, 6 and 7). Caspase-3 is able to directly degrade multiple substrates including structural and regulatory proteins. Some small molecules have been developed to be selective activators of Caspase-3 [30]. Thus, we investigated whether caspase-3 was activated when HeLa cells were exposed to compound 9n.

Structures are written as SMILES.

By IC50 is commonly meant the concentration that inhibits the measured activity by half.

In the assay on HeLa, `CC(C)c1ccc2c(c1)CCC1[C@](C)(C(=O)NC(=S)N[C@H](Cc3ccccc3)C(=O)Nc3ccccn3)CCC[C@]21C` (stereo partly drawn) [Compound 9n, (1R,4aS)-7-Isopropyl-1,4a-dimethyl-N-(((R)-1-oxo-3-phenyl-1-(pyridin-2-ylamino)propan-2-yl)carbamothioyl)-1,2,3,4,4a,9,10,10a-octahydrophenanthrene-1-carboxamide] came in with an IC50 of 6.58 ± 1.11 µM. The “apoptosis by AO/EB staining” value in the assay with HeLa cells [1] was “obvious apoptotic characters”. Also, the cell cycle arrest entry with HeLa cells [2] is “mainly arrested HeLa cells in the S stage”. Also, the “apoptosis ratio (early and late)” value in the assay with HeLa cells [3] (10 μM) amounted to 21.11%; in the assay on HeLa cells [3] (15 μM), 42.75%. For the same compound, in the assay on HeLa cells [4], the ROS level result is recorded as “induced an increase of the ROS level”. In the assay on caspase-3, the caspase-3 activity entry is listed as “significant increase in the activity of caspase-3”.

Values taken from PMC4519859, “Synthesis and Biological Evaluation of Novel Dehydroabietic Acid Derivatives Conjugated with Acyl-Thiourea Peptide Moiety as Antitumor Agents” (International Journal of Molecular Sciences, 2015).
